# Measurements taken from patent US20100285959A1, “HERBICIDAL MIXTURES” (priority 2006, published 2010).
# What was measured:
# [1] = test system: barnyardgrass (ECHCG); assay: Test 32 greenhouse, simulated flooded rice culture; assay type: in vivo, Echinochloa crus-galli; parameters: scale not given here; details: postemergence to flood, 21 DAA
# Procedure: A greenhouse trial was conducted to evaluate the effects of Compound 1 and isoxadifen-ethyl at different ratios in simulated flooded rice culture. Plastic pots (11-cm diameter) were partially filled with non-sterilized Tama silt loam soil containing a 15:57:28 ratio of sand, silt and clay and 2.9% organic matter. Seeds of Heteranthera limosa (ducksalad; HETLI), Cyperus difformis (smallflower umbrella sedge; CYPDI), one stand of Echinochloa crus-galli (barnyardgrass; ECHCG), and one stand of four rice seedlings (Oryza sativa cv. ‘M202’; ORYSA) were planted into a single 11-cm diameter pot for each rate and mixture of rates. To obtain this planting, C. difformis and H. limosa seeds were planted separately on the surface soil layer at particular locations within each pot. Water levels were brought to a puddled condition above the soil surface directly after planting. E. crus-galli and rice seeds were planted in cavity trays in the silt loam soil and transplanted at the 1.5 and 2.0 leaf stage, respectively. E. crus-galli and rice plants were transplanted to about 2-cm depth by transferring plugs from the cavity trays. Plantings were sequential so that these plant species all reached the 2.0- to 2.5-leaf stage in the 11-cm diameter pot at time of treatment. Plantings were established and maintained in a greenhouse with day and night temperatures of about 29.5 and 26.7° C. respectively; supplemental balanced lighting was provided to maintain a 16-hour photoperiod. Pots were fertilized periodically with a 200 ppm solution of commercial Scotts Peters® Professional® General Purpose 20-20-20 Water Soluble Fertilizer, amended to 10 ppm with a commercial iron-chelate micronutrient fertilizer. The solution was supplied at time of watering via a liquid fertilizer injector.
# At treatment time, test pots were flooded to 3 cm above the soil surface and maintained at that water depth for the duration of the test. Chemical treatments were formulated in acetone and applied directly to the paddy water (i.e., postemergence to flood). Make-up volumes of acetone were added to ensure that all pots were treated with a consistent volume. Test pots were maintained in the greenhouse. A randomized complete block design was employed. Five replicates of each treatment, alone and in mixture, were used. Each species was visually evaluated for treatment effects by comparing those treated to untreated controls and rated for plant response after 21 days.
# [2] = test system: Russian thistle (SASKR); assay: Test 4 field trial, postemergence; assay type: in vivo, Salsola kali; parameters: scale not given here
# Procedure: (§1) A field trial was conducted to evaluate the effects of mixtures of Compound 2 with commercial herbicides on spring wheat (TRZAS, Triticum aestivum L.) and several weed species. Wheat seeds (cv. ‘AC Intrepid’) were planted in late spring season, 3.8 cm deep in a loam soil having 2.7% organic matter and a pH of 7. Plots were 6 m long by 2.5 m wide. The field was managed using no-till practices. The plots were arranged in a randomized complete block design with each treatment being replicated four times. Treatments were applied postemergence 25 days after planting using a backpack sprayer delivering a spray volume of 55 L/ha using a pressure of 276 kPa. […] Compound 2 and clodinafop treatments, alone and in combination, also included a surfactant. Weed species present in the experimental plots in sufficient quantity to be evaluated included wild oat (AVEFA, Avena fatua L.), common lambsquarters (CHEAL, Chenopodium album L.), kochia (KCHSC, Kochia scoparia (L.) Schrad.), wild buckwheat (POLCO, Polygonum convolvulus L.), Russian thistle (SASKR, Salsola kali L. ssp. ruthenica (Iljin) Soo), and field pennycress (THLAR, Thlaspi arvense L.). […] Common lambsquarters was evaluated only at 14 days after application. […] Results are the means of the four replicates.
# [3] = test system: velvetleaf (ABUTH); assay: Test 26 field trial, postemergence; assay type: in vivo, Abutilon theophrasti
# Excerpt: Corn seeds (hybrid ‘Pioneer 31G96’) were planted in mid spring season, 3.8 cm deep in a silt loam soil having 2% organic matter and a pH of 6.6. Plots were 6.1 m long by 3.0 m wide with rows spaced 76 cm apart. Seeds were spaced 15 cm apart within the rows. The field was managed using conventional tillage practices. […] All treatments also included a surfactant. […] Some of the weed species could not be evaluated at every timing. […] Results are the means of the three replicates.
# [4] = test system: field pennycress (THLAR); assay: Test 4 field trial, postemergence; assay type: in vivo, Thlaspi arvense; parameters: scale not given here
# Procedure: as §1
# [5] = test system: corn (ZEAMD); assay: Test 28 greenhouse, post- and preemergence; assay type: in vivo, Zea mays ssp. indentata; parameters: scale not given here; details: 26 DAA
# Procedure: A greenhouse test was conducted to evaluate the effects on the plant species corn (ZEAMD, Zea mays ssp. indentata), sorghum (SORVU, Sorghum vulgare L.), dry-seeded rice (ORYSA, Oryza sativa L.), wheat (TRZAW, Triticum aestivum L.), ivyleaf morningglory (IPOHE, Ipomoea hederacea (L.) JACQ.), and barnyardgrass (ECHCG, Echinochloa crus-galli (L.) P. BEAUV.), of mixtures of Compound 2 with isoxadifen-ethyl. Corn, sorghum, rice, wheat, ivyleaf morningglory and barnyardgrass seeds were planted in RediEarth, a commercial potting medium. […] Corn plants were treated postemergence at the V2 growth stage, and sorghum, rice, wheat, ivyleaf morningglory, and barnyardgrass plants were treated postemergence at the 3-leaf stage. […] Each treatment was replicated three times. […] Plants were watered as needed.
# [6] = test system: common lambsquarters (CHEAL); assay: Test 24 growth chamber, postemergence; assay type: in vivo, Chenopodium album; details: 17 DAA
# Procedure: Plants were treated postemergence at the 2-4 leaf growth stage, and each treatment was replicated three times. […] Plants were watered as needed. […] Results for barley and wheat are the means across varieties of the three replicates, and results for the weeds are the means of the three replicates.
# [7] = test system: velvetleaf (ABUTH); assay: Test 18 greenhouse, post- and preemergence; details: 15 DAA
# [8] = 14 DAA, Cpd 2 60 g a.i./ha alone or with clodinafop 56 or fenoxaprop 90
# [9] = 35 DAA, Cpd 2 30 g a.i./ha alone or with clodinafop 56 or fenoxaprop 90
compound,measurement,setting,value
"Nc1nc(C2CC2)nc(C(=O)O)c1Cl [Compound 1, 6-amino-5-chloro-2-cyclopropyl-4-pyrimidinecarboxylic acid]",ECHCG Obs,[1]; Cpd 1 31.25 g a.i./ha,10
same,ECHCG Obs,[1]; Cpd 1 62.5 g a.i./ha,19
same,ECHCG Obs,[1]; Cpd 1 125 g a.i./ha,37
"COC(=O)c1nc(C2CC2)nc(N)c1Cl [Compound 2, methyl 6-amino-5-chloro-2-cyclopropyl-4-pyrimidinecarboxylate]",SASKR Obs,"[2]; 14 DAA, Cpd 2 30 g a.i./ha alone or with clodinafop 56 or fenoxaprop 90",88
same,SASKR Obs,[2]; [8],91
same,SASKR Obs,[2]; [9],99
same,SASKR Obs,"[2]; 35 DAA, Cpd 2 60 g a.i./ha alone",95
same,ABUTH Obs,"[3]; 14 DAA, 30 g a.i./ha",86
same,ABUTH Obs,"[3]; 14 DAA, 45 g a.i./ha",64
same,ABUTH Obs,"[3]; 14 DAA, 60 g a.i./ha",95
same,ABUTH Obs,"[3]; 28 DAA, 30 g a.i./ha",80
same,ABUTH Obs,"[3]; 28 DAA, 45 g a.i./ha",59
same,ABUTH Obs,"[3]; 28 DAA, 60 g a.i./ha",90
same,ABUTH Obs,"[3]; 56 DAA, 30 g a.i./ha",40
same,ABUTH Obs,"[3]; 56 DAA, 45 g a.i./ha",57
same,ABUTH Obs,"[3]; 56 DAA, 60 g a.i./ha",63
same,THLAR Obs,"[4]; 14 DAA, Cpd 2 30 g a.i./ha alone or with fenoxaprop 90",0
same,THLAR Obs,[4]; [8],0
same,THLAR Obs,[4]; [9],0
same,THLAR Obs,"[4]; 35 DAA, Cpd 2 60 g a.i./ha alone or with fenoxaprop 90",8
same,ZEAMD Obs,"[5]; postemergence, Cpd 2 32 g a.i./ha",27
same,ZEAMD Obs,"[5]; postemergence, Cpd 2 64 g a.i./ha",50
same,ZEAMD Obs,"[5]; preemergence, Cpd 2 32 g a.i./ha",7
same,ZEAMD Obs,"[5]; preemergence, Cpd 2 64 g a.i./ha",7
same,CHEAL Obs (scale 0 to 100),[6]; Cpd 2 4 g a.i./ha,45
same,CHEAL Obs (scale 0 to 100),[6]; Cpd 2 8 g a.i./ha,60
same,CHEAL Obs (scale 0 to 100),[6]; Cpd 2 16 g a.i./ha,73
same,Postemergence ABUTH Obs,[7]; alone at 15 g a.i./ha,39
same,Preemergence ABUTH Obs,[7]; alone at 15 g a.i./ha,16
same,Postemergence ABUTH Obs,[7]; alone at 30 g a.i./ha,58
same,Preemergence ABUTH Obs,[7]; alone at 30 g a.i./ha,26
same,Postemergence ABUTH Obs,[7]; alone at 45 g a.i./ha,67
same,Preemergence ABUTH Obs,[7]; alone at 45 g a.i./ha,28
